Test: Bulk density (uncompressed, untapped powder)
Type: physicochemical
Conditions: Compound 1 as synthesized, cotton like fluffy agglomerates
Method: As used herein, the term “bulk density” refers to the uncompressed, untapped powder bulk density, as measured by pouring an excess of powder sample through a funnel into a smooth metal vessel (e.g., a 500 mL volume cylinder), scraping off the excess from the heap above the rim of the vessel, measuring the remaining mass of powder and dividing the mass by the volume of the vessel.
Three 500 g batches of Compound 1 powder blends (see Table 3) were prepared according to the following method. A KG-5 High Shear Granulator with an 8-inch impeller diameter was used to preblend all ingredients (except magnesium stearate) at low (155 rpm), medium (405 rpm), or high (600 rpm) impeller speeds with the chopper speed of 1200 rpm for 2 minutes. Water was added at a rate of 30 to 31.5 g/min to the powder mix. After the full amount of water was added, the mixture was blended for an additional 2 minutes. The wet granules were dried with the MiniGlatt Fluid Bed Dryer at 60° C. to targeted LODs and the granule texture, size, shape, stickiness, etc visually inspected. Drying at various temperatures and times are evaluated also. […] The final blends were checked for degradation by HPLC, and physical properties determined such as, Bulk Density, Tapped Density, Carr's Index, Hausner Ratio and Flow Index by Flodex. […]

COc1cc(Nc2ncc(F)c(Nc3ccc4c(n3)N(COP(=O)([O-])[O-])C(=O)C(C)(C)O4)n2)cc(OC)c1OC.[Na+].[Na+] [Compound 1, (6-(5-fluoro-2-(3,4,5-trimethoxyphenylamino)pyrimidin-4-ylamino)-2,2-dimethyl-3-oxo-2H-pyrido[3,2-b][1,4]oxazin-4(3H)-yl)methyl phosphate disodium salt]
bulk density: 0.15 to 0.30 g/mL

Reference: US8652492B2, “Wet granulation using a water sequestering agent” (Rigel Pharmaceuticals, Inc., priority 2007, dated 2014)
